# Experiments:
# [1] = target: T1, NEP (Rattus norvegicus, UniProt P07861); test: Met-enkephalin hydrolysis by rat spinal cord slices and membrane preparations, RP-HPLC analysis; format: biochemical; details: 10 μM alone, spinal cord slices, 20 min at 25° C., 10 μM Met-enkephalin
# T1 construct: incubations of membrane and fresh tissue slice preparations from nervous tissues; from tissue; host or cells: dorsal spinal cord of male Wistar rats (fresh slices or 100 000 x g membrane fraction)
# T1 sequence (P07861 1-750): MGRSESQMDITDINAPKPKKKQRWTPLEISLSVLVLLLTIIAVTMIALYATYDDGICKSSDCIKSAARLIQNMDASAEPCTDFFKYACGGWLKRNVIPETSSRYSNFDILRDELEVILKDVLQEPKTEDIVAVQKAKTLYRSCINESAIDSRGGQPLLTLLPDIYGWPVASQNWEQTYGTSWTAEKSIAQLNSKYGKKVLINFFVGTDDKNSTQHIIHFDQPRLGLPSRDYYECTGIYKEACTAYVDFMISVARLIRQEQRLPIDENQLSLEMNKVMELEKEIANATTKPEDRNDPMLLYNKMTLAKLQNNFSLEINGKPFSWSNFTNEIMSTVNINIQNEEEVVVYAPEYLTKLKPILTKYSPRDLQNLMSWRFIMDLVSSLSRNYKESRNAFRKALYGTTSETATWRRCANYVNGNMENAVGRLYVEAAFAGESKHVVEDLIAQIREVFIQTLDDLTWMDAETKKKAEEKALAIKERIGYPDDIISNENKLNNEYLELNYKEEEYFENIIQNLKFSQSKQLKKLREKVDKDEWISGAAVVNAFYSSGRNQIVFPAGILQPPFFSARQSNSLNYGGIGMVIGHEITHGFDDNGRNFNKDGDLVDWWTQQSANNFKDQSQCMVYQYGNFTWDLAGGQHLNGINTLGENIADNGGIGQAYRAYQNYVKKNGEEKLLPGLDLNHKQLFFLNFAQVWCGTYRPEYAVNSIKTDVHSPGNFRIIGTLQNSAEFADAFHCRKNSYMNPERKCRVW
# Protocol: FIG. 2-B: […] Retention time) recovered after 20 min. incubation at 25° C. with 1 mg fresh tissue slices in a 1 ml final volume of KRBG buffer. The organs are rapidly removed, dissected on ice, freed of nerve fibers and of adipose tissues and then washed in cold oxygenated glucose- and bicarbonate-containing Krebs Ringer (KRBG) solution, whose composition is the following: 120 mM NaCl-5 mM KCl-1.2 mM KH2PO4-27.5 mM NaHCO3-2.6 mM CaCl2-0.67 mM MgSO4-5.9 mM glucose. The slices of tissues are prepared either manually with the aid of a scalpel (1-2 mm thick), or mechanically with the aid of a “Tissue Chopper” (1 mm thick). Slices are then dispersed into reaction tubes where they are subjected to three successive washes in ice-cold oxygenated KRBG. […] The organs dissected out and washed in ice-cold KRBG are homogenized at 4° C. in 10 volumes (vol./wt.) of 50 mM Tris/HCl buffered at pH 7.2, using a Teflon-glass homogenizer (3×5 sec.). […] The metabolism rate of the NEP-sensitive peptides was measured using the both NEP substrates involved in the signaling of the nociceptive response: the neuropeptides Met-enkephalin and Substance P. […] Their identification and relative quantification (peak height) are checked by continuously monitoring the UV absorbance at 254 nm of column outflow. […]
# [2] = target: T1, NEP; test: Met-enkephalinase activity of rat spinal cord slices, Met-enkephalin RIA; format: biochemical; details: 10 μM, fresh spinal cord tissue, 20 min at 25° C.
# Protocol: FIG. 2-A: […] The organs are rapidly removed, dissected on ice, freed of nerve fibers and of adipose tissues and then washed in cold oxygenated glucose- and bicarbonate-containing Krebs Ringer (KRBG) solution, whose composition is the following: 120 mM NaCl-5 mM KCl-1.2 mM KH2PO4-27.5 mM NaHCO3-2.6 mM CaCl2-0.67 mM MgSO4-5.9 mM glucose. The slices of tissues are prepared either manually with the aid of a scalpel (1-2 mm thick), or mechanically with the aid of a “Tissue Chopper” (1 mm thick). Slices are then dispersed into reaction tubes where they are subjected to three successive washes in ice-cold oxygenated KRBG. […] For the experiments of analysis of the NEP peptidase activity, an ex vivo model using incubations of membrane and fresh tissue slice preparations from nervous tissues that are known to be appropriate for exploring NEP peptidase activity: i.e. the dorsal zone of rat spinal cord, was first developed. The metabolism rate of the NEP-sensitive peptides was measured using the both NEP substrates involved in the signaling of the nociceptive response: the neuropeptides Met-enkephalin and Substance P. […] (NEN, 12.5-25 nM) were used. The objective was to measure the NEP-specific endoproteolysis of these substrates. […] Furthermore, for studying the functional role of […] NO: 2), the reaction was carried out in the presence of the SMR1-peptide alone or combined with specific inhibitors of membrane peptidases which could inactivate the […] […] Herein, a competitive RIA system has been used: the quantity of radioactive antigen bound to the antibody decreases in a manner inversely proportional to the quantity of antigen contained in the standard solution or in the sample. […] The activity of enkephalinase NEP is monitored by quantification of the disappearance of the initial Met-enkephalin substrate. […] The radiolabeled antigen is iodinated Met-enkephalin (^125I-Met-Enk enkephalin) with a specific radioactivity estimated at 3000 Ci/mmol. […] After centrifugation, the bound radioactivity of the precipitate is quantified using a gamma-spectrometer.
# [3] = system: male rats; test: Pin pain test; format: in vivo, rat
# Protocol: The 3-min test session was performed 5 min after intravenous. rat tail vein administration of sialorphin or its vehicle. Naloxone (0.3 mg per kg body weight) was injected subcutaneously 15 min before sialorphin administration. Time in centre field sector (FIG. 6-C) (central square of the open-field without pin) and activity (FIGS. 6-A and 6-B) in peripheral squares (overlayed with pins) during the 3-min test session. Each value represents the mean±sem of 8 animals per group. […] Control group corresponded to pain response in vehicle-treated rats. 50 μg/kg sialorphin, 100 μg/kg sialorphin, 100 μg/kg sialorphin plus naloxone 0.3 mg/kg.
# To extend the insight into the in vivo possible antinociceptive property of sialorphin through enkephalin-degrading enzyme inhibition, its effects were assessed in rat model of pain, i.e. the pin pain test, (Hebert et al. (1999) Physiology & Behavior 67, 99-105) in which the various behavioural parameters of pain responses were recorded with a 3-min cutoff time.
# The in vivo activity of sialorphin was tested on the pin pain assay using male rats (350-400 g, Charles Rivers). The experimental device consists in an open-field (45×45×40 cm) which is divided into nine equal squares (150×150 mm), eight of them are peripheral and one is central. The peripheral squares are overlayed with stainless steel pins (2/cm2, length 8 mm and diameter 0.6 mm). The test consisted in placing the rat in the central square of the open-field and recording its different behaviours (cut-off time, 3 min). Two days before the pain test, the rats were familiarised with the experimental device without pins for 20 min, so as to reduce the stress linked to the spatial neophobia. All statistical analyses were carried out using the Statview 5 statistical package.
# [4] = naloxone 0.3 mg per kg subcutaneous, prior to sialorphin
smiles,measurement,setting,value
"CC(C)C[C@H](NP(=O)(O)O[C@@H]1O[C@@H](C)[C@H](O)[C@@H](O)[C@H]1O)C(=O)N[C@@H](Cc1c[nH]c2ccccc12)C(=O)O [Phosphoramidon, reference compound]",inhibition of Met-enkephalinase activity (Met-enkephalin degradation),[1],complete inhibition
same,protection of Met-enkephalin from degradation,[2],96%
O=C(O)CNC(=O)C(CS)Cc1ccccc1 (stereo not shown) [Thiorphan],protection of Met-enkephalin from degradation,[2],100%
"C=CCN1CC[C@]23c4c5ccc(O)c4O[C@H]2C(=O)CC[C@@]3(O)[C@H]1C5 [naloxone, reference compound]",reversal of the sialorphin-effect on behavioural parameters of noxious response,[3]; [4],42-63%
same,reversal of the sialorphin-effect on time in central area,[3]; [4],56%
same,reversal of the sialorphin-effect on vocalisation parameter,[3]; [4],20%
same,time in the central area of the open-field,[3]; sialorphin plus naloxone 0.3 mg/kg s.c. 15 min before sialorphin,112.38 ± 17.44 s

# From US7625713B2, “Process for identifying a ligand that binds to the NEP binding site for the SMR1 pentapeptide” (Institut Pasteur, priority 2000, dated 2009)
